Some test systems named below: A498; COLO 205; DU-145; HCC 2998; HOP-62; HOP-92; Hs-578T; MOLT-4; NCI-H226; NCI-H23; OVCAR-4; OVCAR-8; PC-3; SF-295; SK-MEL-28; SK-MEL-5; SNB-19; SNB-75; U-251; UO-31.
Holding throughout (assay): NCI-60 cell line screen, 48 h

Structures are written as SMILES.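 Compound exposure: 48 hours, 5 concentrations, 96-well plates. GI50 is the concentration that inhibits growth by half.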 Active and inactive are the calls of the source. No stated cut-off is given here; in the data, active = GI50 up to about 1.1 µM and inactive = higher. A value given as a limit tells only on which side of the number the result lay.

Turning to `CC1=C2C(=O)c3ccccc3C(=O)[C@H]2C[C@@H](N2CCCCCC2=O)O1`, the GI50 in the test with A498 is > 100 µM (inactive); in the test with COLO 205, 17.3 µM (inactive); in the test on DU-145 it was 18.3 µM (inactive); in the test with HCC 2998 it was 16.7 µM (inactive); in the test with HOP-62, 19 µM (inactive); in the test with HOP-92 it was 19.4 µM (inactive). For the same molecule, the GI50 was 30.5 µM (inactive) with Hs-578T; 14.7 µM (inactive) with MOLT-4; 30.5 µM (inactive) with NCI-H226; 14.9 µM (inactive) in the test with NCI-H23; 17.2 µM (inactive) in the test on OVCAR-4; 21.5 µM (inactive) in the test with OVCAR-8. The GI50 is 17.9 µM (inactive) in the test on PC-3; 18.8 µM (inactive) in the test on SF-295; 18.7 µM (inactive) in the test on SK-MEL-28; 16.1 µM (inactive) in the test with SK-MEL-5; 21 µM (inactive) in the test with SNB-19; 23.4 µM (inactive) with SNB-75. For the same molecule, the GI50 was 23.8 µM (inactive) with U-251 and 17 µM (inactive) in the test on UO-31.
Turning to `O=[N+]([O-])c1ccc(NC(=S)Nc2ccccn2)cc1`, the GI50 with A498 was 12.8 µM (inactive); with COLO 205, 18.5 µM (inactive); in the test on DU-145 it was 7.5 µM (inactive); in the test with HCC 2998 it was > 100 µM (inactive); in the test on HOP-62 it was 17.3 µM (inactive); in the test with HOP-92 it was 72.4 µM (inactive). Moreover, the GI50 with Hs-578T was 13.8 µM (inactive); in the test with MOLT-4, 16.9 µM (inactive); with NCI-H226, 22.7 µM (inactive); with NCI-H23 it was 63.4 µM (inactive); in the test on OVCAR-4, 37.5 µM (inactive); in the test with OVCAR-8 it was 31.5 µM (inactive). The GI50 in the test on PC-3 was 40.6 µM (inactive); in the test with SF-295, 27.4 µM (inactive); in the test with SK-MEL-28, > 95.3 µM (inactive); in the test with SK-MEL-5, 43.3 µM (inactive); in the test with SNB-19, 57.3 µM (inactive); with SNB-75, 18 µM (inactive). Besides, the results for the GI50 with U-251 and in the test on UO-31 were 24.3 µM (inactive) and 26.2 µM (inactive), respectively.
Regarding `CC(C)=CCc1[nH]c2ccccc2c1C1=C(O)C(=O)C(c2c(CC=C(C)C)[nH]c3ccccc23)=C(O)C1=O`, the GI50 is 1.21 µM (inactive) with A498; 1.63 µM (inactive) in the test with COLO 205; 2.39 µM (inactive) with DU-145; 1.01 µM (active) with HCC 2998; 0.815 µM (active) in the test with HOP-62; 1.12 µM (inactive) in the test on HOP-92. Besides, the GI50 was 1.04 µM (active) in the test on Hs-578T; 1.96 µM (inactive) in the test with MOLT-4; 1.73 µM (inactive) in the test on NCI-H226; 1.91 µM (inactive) in the test on NCI-H23; 3.58 µM (inactive) in the test with OVCAR-4; 1.53 µM (inactive) in the test with OVCAR-8. Moreover, the GI50 is 1.83 µM (inactive) in the test on PC-3; 1.03 µM (active) in the test with SF-295; 0.757 µM (active) with SK-MEL-28; 1.76 µM (inactive) in the test with SK-MEL-5; 2.03 µM (inactive) in the test on SNB-19; 0.604 µM (active) in the test with SNB-75. The GI50 is 0.587 µM (active) in the test with U-251 and 1.49 µM (inactive) with UO-31.
As to `Cn1c(=O)[nH]c2nccnc2c1=O`, the GI50 in the test with A498, in the test on COLO 205, in the test on DU-145, with HCC 2998, with HOP-62 and in the test with HOP-92 was > 10 µM (inactive) throughout. Also, the GI50 with Hs-578T, in the test with MOLT-4, in the test on NCI-H226, in the test with NCI-H23, with OVCAR-4 and in the test on OVCAR-8 was > 10 µM (inactive) throughout. Besides, the GI50 in the test with PC-3, in the test on SF-295, with SK-MEL-28, with SK-MEL-5, with SNB-19 and in the test on SNB-75 was > 10 µM (inactive) in each case. Moreover, the GI50 in the test with U-251 and in the test on UO-31 was > 10 µM (inactive) throughout.
In the case of `Cc1c2ccncc2c(C)c2c1sc1ccccc12`, the GI50 with A498 was 8.47 µM (inactive); with COLO 205, 12.3 µM (inactive); with DU-145, 13.3 µM (inactive); in the test with HCC 2998, 11.8 µM (inactive); in the test on HOP-62 it was 7.38 µM (inactive); with HOP-92, 12 µM (inactive). In addition, the GI50 with Hs-578T was 13.6 µM (inactive); with MOLT-4, 2.33 µM (inactive); in the test on NCI-H226 it was 8.13 µM (inactive); with NCI-H23, 8.2 µM (inactive); with OVCAR-4, 14.3 µM (inactive); in the test with OVCAR-8, 8.22 µM (inactive). Further, the GI50 in the test with PC-3 was 11.1 µM (inactive); in the test with SF-295, 10.1 µM (inactive); with SK-MEL-28, 13.3 µM (inactive); in the test on SK-MEL-5, 7.87 µM (inactive); with SNB-19, 9.4 µM (inactive); in the test with SNB-75 it was 14.6 µM (inactive). Besides, in the test on U-251, the GI50 was 10.8 µM (inactive).
Turning to `CCOC(=O)c1[nH]cc(C)c1-c1cccn1-c1ccc(Cl)cc1[N+](=O)[O-]`, the GI50 with A498 was 35.3 µM (inactive); in the test with COLO 205, 17.8 µM (inactive); with DU-145, 35.1 µM (inactive); in the test on HCC 2998, 19.4 µM (inactive); in the test with HOP-62, 18.6 µM (inactive); with HOP-92 it was 17.9 µM (inactive). Besides, the GI50 with Hs-578T was 15.8 µM (inactive); in the test with MOLT-4, 17.1 µM (inactive); in the test with NCI-H226, 16.7 µM (inactive); with NCI-H23 it was 23.9 µM (inactive); in the test with OVCAR-4 it was 32.5 µM (inactive); in the test with OVCAR-8, 20.8 µM (inactive). The GI50 is 20.1 µM (inactive) in the test on PC-3; 28.2 µM (inactive) with SF-295; 22.8 µM (inactive) in the test on SK-MEL-28; 14.9 µM (inactive) with SK-MEL-5; 19.1 µM (inactive) in the test on SNB-75; 15.1 µM (inactive) with U-251. Besides, the GI50 in the test with UO-31 was 15.7 µM (inactive).
As for `Cn1nnnc1SC(F)(F)c1nc2ccccc2o1`, the GI50 in the test on A498, with COLO 205, in the test with DU-145, with HCC 2998, in the test with HOP-62 and in the test on HOP-92 was > 100 µM (inactive) throughout. Moreover, the GI50 in the test on Hs-578T was > 100 µM (inactive); with MOLT-4, 24.1 µM (inactive); in the test on NCI-H226 it was > 100 µM (inactive); in the test with NCI-H23 it was > 100 µM (inactive); in the test with OVCAR-4, > 100 µM (inactive); in the test with OVCAR-8, > 100 µM (inactive). For the same molecule, the GI50 in the test with PC-3 is > 100 µM (inactive); in the test on SF-295, > 100 µM (inactive); with SK-MEL-28 it was > 100 µM (inactive); in the test with SK-MEL-5 it was > 100 µM (inactive); in the test with SNB-75, 52.1 µM (inactive); with U-251, > 100 µM (inactive). In addition, the GI50 in the test with UO-31 was > 100 µM (inactive).
`CCC(CCCN)Nc1cc(OC)cc2c(C)ccnc12` (stereo unspecified): the GI50 is 18.7 µM (inactive) with A498; 18.2 µM (inactive) in the test with COLO 205; 17.5 µM (inactive) with DU-145; 18.8 µM (inactive) in the test on HCC 2998; 15.1 µM (inactive) with HOP-62; 14 µM (inactive) in the test on HOP-92. Moreover, the GI50 was 13 µM (inactive) in the test on Hs-578T; 15.8 µM (inactive) in the test with MOLT-4; 13.3 µM (inactive) in the test on NCI-H226; 17.8 µM (inactive) in the test with OVCAR-4; 21.1 µM (inactive) with OVCAR-8; 11.6 µM (inactive) in the test with PC-3. The GI50 in the test on SF-295 was 17.3 µM (inactive); with SK-MEL-28, 16.9 µM (inactive); with SK-MEL-5, 17.8 µM (inactive); in the test with SNB-19 it was 11.3 µM (inactive); in the test with SNB-75, 12.7 µM (inactive); with UO-31, 12.9 µM (inactive).
Regarding `Nc1cc(-c2ccc(Cl)cc2)nn1-c1nc2ccccc2nc1-c1ccccc1`, the GI50 with A498 is > 100 µM (inactive); in the test on COLO 205, > 100 µM (inactive); in the test with DU-145, > 100 µM (inactive); in the test with HCC 2998, > 100 µM (inactive); in the test with HOP-62, 49 µM (inactive); in the test on HOP-92, 56 µM (inactive). Further, the GI50 is 70.5 µM (inactive) with Hs-578T; 8.02 µM (inactive) with MOLT-4; > 100 µM (inactive) in the test on NCI-H226; 56.8 µM (inactive) in the test with OVCAR-4; > 100 µM (inactive) in the test with OVCAR-8; 22.2 µM (inactive) in the test with PC-3. For the same molecule, the GI50 is > 100 µM (inactive) in the test on SF-295; 79.4 µM (inactive) in the test with SK-MEL-28; 92 µM (inactive) in the test with SK-MEL-5; 47.8 µM (inactive) with SNB-19; 27.6 µM (inactive) with SNB-75; 48.1 µM (inactive) in the test with U-251.
On to `CCOC(=O)c1nc2ccc(C(F)(F)F)cc2nc1NCc1cc(OC)c(OC)c(OC)c1`, for which the GI50 in the test on A498 is > 100 µM (inactive); in the test on COLO 205 it was 29.3 µM (inactive); with DU-145 it was 66.5 µM (inactive); in the test on HCC 2998 it was 57.9 µM (inactive); in the test on HOP-62, > 100 µM (inactive); with HOP-92 it was 27.7 µM (inactive). In addition, the GI50 with Hs-578T was 32.3 µM (inactive); with MOLT-4 it was 70.8 µM (inactive); with NCI-H226 it was > 100 µM (inactive); in the test with NCI-H23 it was 59.2 µM (inactive); in the test on OVCAR-8, > 100 µM (inactive); with PC-3, 41.9 µM (inactive). Besides, the GI50 is > 100 µM (inactive) in the test with SF-295; 34 µM (inactive) in the test with SK-MEL-28; 27.7 µM (inactive) with SK-MEL-5; > 100 µM (inactive) in the test with SNB-19; 29.1 µM (inactive) in the test on SNB-75; 35.3 µM (inactive) in the test with UO-31.

Values taken from ChEMBL document CHEMBL1201862, “PubChem BioAssay data set” (2004).
